Measured values published in PMC9269301, “Phytochemical Analysis, Antioxidant, Antimicrobial, and Cytotoxic Activity of Different Extracts of Xanthoparmelia stenophylla Lichen from Stara Planina, Serbia” (Plants, 2022).
Marks after values point to notes of the source that are not given here.

How the values were obtained:
[1] = tested on: HeLa cells (cervical adenocarcinoma); experiment: MTT assay; format: cell-based, human; conditions: HeLa
[2] = Superoxide anion radical scavenging activity (NBT/NADH/PMS); format: biochemical; conditions: mean ± SD, triplicate
Protocol: All chemicals for the antioxidant activity test were purchased from Sigma Aldrich. All measurements were conducted in triplicate, and a Shimadzu UV-1800 spectrophotometer was used for all measurements during antioxidant activity experiments. The IC50 value was used for comparing different radical scavenging effects between investigated extracts, isolated compounds, and positive controls. […] [75] with modifications. […] To initiate the reaction, 0.1 mL of phenazine methosulfate (PMS) solution ([…] in 0.1 M phosphate buffer at pH 7.4) was added to each tube. The mixture was incubated at room temperature for 5 min, and then the absorbance was measured at 560 nm relative to the blank. Ascorbic acid, gallic acid, and Trolox were used as positive controls, and a decrease in absorbance indicated increased superoxide anion radical scavenging activity. […] Ac stands for absorbance of the control (which contains all reagents, except the tested extract or compound), and As is the absorbance of the sample.

[3] = DPPH radical scavenging activity; format: biochemical; conditions: mean ± SD, triplicate
Protocol: All chemicals for the antioxidant activity test were purchased from Sigma Aldrich. All measurements were conducted in triplicate, and a Shimadzu UV-1800 spectrophotometer was used for all measurements during antioxidant activity experiments. The IC50 value was used for comparing different radical scavenging effects between investigated extracts, isolated compounds, and positive controls. […] [71] with certain modifications. […] The solution was prepared ex tempore and stored in a tinted bottle in the refrigerator until the experiments were performed. […] The reaction mixture was vortexed and allowed to incubate in the dark for one hour, after which the absorbance was measured at 517 nm relative to the blank. […] Ac stands for absorbance of the control (which contains all reagents, except the tested extract or compound), and As is the absorbance of the sample.

[4] = tested on: MDA-MB 231 cells (breast cancer); experiment: MTT assay; format: cell-based, human; conditions: data not shown
P. aeruginosa biofilm = experiment: Biofilm metabolic activity by resazurin; format: cell-based, Pseudomonas aeruginosa; conditions: Figure 3
Protocol: Resazurin (7-hydroxy-3H-phenoxazin-3-one-10-oxide) is a viability dye used to assess the metabolic activity of biofilms. After incubation at 37 °C/48 h, a volume of 10 µL of resazurin indicator solution was added to each well. Plates were incubated in the dark for 3 h at 37 °C. The OD was measured at 590 nm using an enzyme-linked immunosorbent assay (ELISA) plate reader. In addition, the color change from purple to pink indicated the metabolic activity of the formed biofilm.

**Q.** Which “GI50 (50% growth inhibition)” value ([1]; 24 h) does the source give for usnic acid here?
**A.** The value was >100 µg/mL.

**Q.** And the IC50 ([1]; 24 h)?
**A.** Its IC50 is >100 µg/mL.

**Q.** What about the “TGI (total growth inhibition)” value ([1]; 24 h) of the same substance?
**A.** Its value is >100 µg/mL.

**Q.** And the “GI50 (50% growth inhibition)” value ([1]; 48 h)?
**A.** Its value is 99.16 ± 15.59 µg/mL.

**Q.** And the IC50 ([1]; 48 h)?
**A.** The IC50 was >100 µg/mL.

**Q.** And the “TGI (total growth inhibition)” value ([1]; 48 h)?
**A.** The value was >100 µg/mL.

**Q.** And the “GI50 (50% growth inhibition)” value ([1]; 72 h)?
**A.** The value was 64.28 ± 8.34 µg/mL.

**Q.** And the “TGI (total growth inhibition)” value ([1]; 72 h)?
**A.** The value was 86.91 ± 5.42 µg/mL.

**Q.** And the IC50 ([1]; 72 h, listed as UA)?
**A.** The IC50 was >100 µg/mL.

**Q.** What about the “Superoxide Anion Radical Scavenging Activity (IC50)” value [2] of the same substance?
**A.** Its value is 90.32 ± 0.95 ^a,b,c,d µg/mL.

**Q.** What about the “DPPH Radical Scavenging Activity (IC50)” value [3] of the same substance?
**A.** Its value is 64.92 ± 1.06 ^a,b,c,d µg/mL.

**Q.** What about the “Overall inhibitory effect (MTT), in words” value [4] of the same substance?
**A.** The value was “of minor importance”.

**Q.** And the “Metabolic activity of biofilm compared to the growth control” value (P. aeruginosa biofilm)?
**A.** Its value is “higher”.
